Test [1] is described as follows: Inhibition of LPM7 beta 5i subunit in human Ramos cells using ac-(anw)2-r110 substrate by fluorogenic assay. Format: cell-based.
Test [2] can be described thus: Inhibition of LPM7 beta 5c subunit in human Ramos cells using rh110-(wla)2 substrate by fluorogenic assay. Format: cell-based.
A short description of test [3]: Inhibition of LPM7 beta 1c subunit in human Ramos cells using rh110-(Ile)2 substrate by fluorogenic assay. Format: cell-based.
The nature of test [4]: Inhibition of LPM7 in CpG type A-stimulated human PBMCs by CXCL10/IP10 detection based PBMC IP-10 assay.
The nature of test [5]: Inhibition of LPM7 beta 1i subunit in human Ramos cells using rh110-(pal)2 substrate by fluorogenic assay. Format: cell-based.

We go through 4 compounds from ChEMBL document CHEMBL3351358, “LPM7 Inhibitors May Potentially Treat Autoimmune Diseases” (ACS Med Chem Lett, 2014).

A word on the IC50: it is the concentration at which inhibition is half-maximal. Higher therefore signals weaker potency in that assay. The EC50 is the midpoint of the concentration-response curve. A high value points to lower potency in that assay. For the compound `CCCC[C@H](NC(=O)[C@H](Cc1c[nH]c2ccccc12)NC(=O)[C@H](C)NC(=O)C1=C(C)c2ccccc2C1)C(=O)C(=O)NCc1ccccc1`, the IC50 in test [1] was determined as 18 nM; in test [2], 560 nM; in test [3], 3340 nM; in test [5] it was 142 nM. Further, the EC50 in test [4] is 1220 nM.

Regarding `COc1ccc(C[C@H](NC(=O)[C@H](C)NC(=O)C2Cc3ccccc3C2)C(=O)N[C@@H](Cc2ccccc2)C(=O)C(=O)NCc2ccccc2)cc1`, the IC50 in test [1] came out at 3 nM; in test [2], 55 nM; in test [3] it was 20000 nM; in test [5], 234 nM. Further, a half-maximal response in test [4] (EC50) required 695 nM.

As to `C[C@H](NC(=O)C1Cc2ccccc2C1)C(=O)N[C@@H](CCc1ccccc1)C(=O)N[C@@H](Cc1ccccc1)C(=O)C(=O)NCc1ccccc1`, the IC50 stood at 4 nM in test [1], 14 nM in test [2], 18100 nM in test [3] and 968 nM in test [5]. Besides, in test [4], the concentration giving a half-maximal response (EC50) turned out to be 379 nM.

On to `C[C@H](NC(=O)OCc1ccccc1)C(=O)N[C@@H](CC(F)(F)F)C(=O)N[C@@H](Cc1ccccc1)C(=O)C(=O)NCc1ccccc1`, for which the IC50 is 524 nM in test [1], 6160 nM in test [2], 20000 nM in test [3] and 2730 nM in test [5]. In test [4], this compound registered an EC50 of 5030 nM.
